In the supplement of paper PMC11451515:

System: SEM cells
Test: cell viability relative to DMSO control; higher = less cytotoxic
Conditions: 48 h
Outline: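 Three leukemia lines were tested: NOMO1 and SEM at 500 cells/well and P12-Ichikawa at 1000 cells/well. Each was adapted for at least four passages in each medium and seeded in 5 μl in 1536-well plates, and library compounds in DMSO were pin-dosed from 47 μM to 0.79 nM in 11 threefold steps. After 48 h at 37°C, CellTiter-Glo One luminescence was read. Viability is a percentage relative to DMSO wells on each plate, with cell-free wells as background.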

[1] = HPLM + 10% dialyzed FBS, 0.000781 µM
[2] = HPLM + 10% dialyzed FBS, 0.00234 µM
[3] = HPLM + 10% dialyzed FBS, 0.00702 µM
[4] = HPLM + 10% dialyzed FBS, 0.0211 µM
[5] = HPLM + 10% dialyzed FBS, 0.0632 µM
[6] = HPLM + 10% dialyzed FBS, 0.19 µM
[7] = HPLM + 10% dialyzed FBS, 0.569 µM
[8] = HPLM + 10% dialyzed FBS, 1.71 µM
[9] = HPLM + 10% dialyzed FBS, 5.12 µM
[10] = HPLM + 10% dialyzed FBS, 15.4 µM
[11] = HPLM + 10% dialyzed FBS, 46.1 µM
[12] = RPMI 5 mM glucose + 10% FBS, 0.000781 µM
[13] = RPMI 5 mM glucose + 10% FBS, 0.00234 µM
[14] = RPMI 5 mM glucose + 10% FBS, 0.00702 µM
[15] = RPMI 5 mM glucose + 10% FBS, 0.0211 µM
[16] = RPMI 5 mM glucose + 10% FBS, 0.0632 µM
[17] = RPMI 5 mM glucose + 10% FBS, 0.19 µM
[18] = RPMI 5 mM glucose + 10% FBS, 0.569 µM
[19] = RPMI 5 mM glucose + 10% FBS, 1.71 µM
[20] = RPMI 5 mM glucose + 10% FBS, 5.12 µM
[21] = RPMI 5 mM glucose + 10% FBS, 15.4 µM
[22] = RPMI 5 mM glucose + 10% FBS, 46.1 µM
[23] = RPMI 5 mM glucose + 10% dialyzed FBS, 0.000781 µM
[24] = RPMI 5 mM glucose + 10% dialyzed FBS, 0.00234 µM
[25] = RPMI 5 mM glucose + 10% dialyzed FBS, 0.00702 µM
[26] = RPMI 5 mM glucose + 10% dialyzed FBS, 0.0211 µM
[27] = RPMI 5 mM glucose + 10% dialyzed FBS, 0.0632 µM
[28] = RPMI 5 mM glucose + 10% dialyzed FBS, 0.19 µM
[29] = RPMI 5 mM glucose + 10% dialyzed FBS, 0.569 µM
[30] = RPMI 5 mM glucose + 10% dialyzed FBS, 1.71 µM
[31] = RPMI 5 mM glucose + 10% dialyzed FBS, 5.12 µM
[32] = RPMI 5 mM glucose + 10% dialyzed FBS, 15.4 µM
[33] = RPMI 5 mM glucose + 10% dialyzed FBS, 46.1 µM

SMILES	cell viability [1] [%]	cell viability [2] [%]	cell viability [3] [%]	cell viability [4] [%]	cell viability [5] [%]	cell viability [6] [%]	cell viability [7] [%]	cell viability [8] [%]	cell viability [9] [%]	cell viability [10] [%]	cell viability [11] [%]	cell viability [12] [%]	cell viability [13] [%]	cell viability [14] [%]	cell viability [15] [%]	cell viability [16] [%]	cell viability [17] [%]	cell viability [18] [%]	cell viability [19] [%]	cell viability [20] [%]	cell viability [21] [%]	cell viability [22] [%]	cell viability [23] [%]	cell viability [24] [%]	cell viability [25] [%]	cell viability [26] [%]	cell viability [27] [%]	cell viability [28] [%]	cell viability [29] [%]	cell viability [30] [%]	cell viability [31] [%]	cell viability [32] [%]	cell viability [33] [%]
ClC1=CC=C(C=C1)C(C#N)C2=C(Cl)C=C(C=C2Cl)N3\N=C/C(=O)NC3=O (configuration not stated)	87.4	43.9	104	83.7	91.8	94.8	91.3	93.9	86.4	91.6	107	90.6	47.9	96.6	92.5	87.1	98.4	90.1	90.2	96.3	82.3	76.7	93.1	42.5	99.2	100	106	119	104	94.6	109	95.8	89.7
C[C@H](NC(=O)c1sccc1OCc1ccc(Cl)cc1)c1ccccc1	98.8	94.4	82.9	88.2	94.8	83.4	91.1	92.5	69.5	80.1	51	96.9	90.9	92.5	106	112	95.6	85.1	112	73.3	115	20.4	107	97.3	94.7	94.1	101	101	97.9	101	70.1	99.6	59.3
c1ccc(CCCN2CCN(CCOC(c3ccccc3)c3ccccc3)CC2)cc1	27.6	98.3	99.1	103	97.9	104	87.4	99.9	87.1	33.9	44.6	69.2	106	104	98	91.7	85.9	102	89	91	19.2	61.8	78.9	103	114	100	99.4	96	73	96.5	92.5	23	50.5
NNCCc1ccccc1	–	–	–	–	–	–	–	–	–	–	–	–	–	–	–	–	–	–	–	–	–	–	102	120	120	127	127	112	115	127	103	117	75.3
Cc1cnn(C)c1C(=O)Nc1cc(Nc2ccc3c(/C=C/c4ccccn4)n[nH]c3c2)ccc1F	114	123	112	103	110	89.6	72.4	70.7	63.4	49.7	23.8	120	118	121	107	104	87.8	67	62.1	45.4	28.4	4.94	114	119	144	124	103	89.1	75.9	68.3	60.6	43	14.2
CNCC(O)c1ccc(O)cc1 (configuration not stated)	59.8	87.8	85.6	80.2	90.1	95.6	87.9	86.8	95.3	99.5	93.6	96.6	95.4	128	103	112	105	113	104	122	114	111	75.6	97.3	85.7	93.5	101	108	100	99.4	114	99.8	87.1
C[C@@H]1COCCN1c1cc(C2([S@+](C)(=N)[O-])CC2)nc(-c2ccnc3[nH]ccc23)n1	90.4	100	98.5	77.8	102	93.4	95.3	40.6	21.5	21.5	14	–	–	–	–	–	–	–	–	–	–	–	81.8	96	114	74.4	130	102	66.3	42.4	24.8	20.6	10.7
CCc1ccc(CCOc2ccc(CC3SC(=O)NC3=O)cc2)nc1 (configuration not stated)	120	115	112	113	124	108	42.4	117	122	119	89.6	93.5	86.9	88.1	85.9	85.6	83.4	61	94.9	87	80	80.7	112	115	111	143	129	116	68.6	137	122	122	110
C[C@](O)(CS(=O)(=O)c1ccc(F)cc1)C(=O)Nc1ccc(C#N)c(C(F)(F)F)c1	93.9	108	104	89.4	116	112	114	116	105	109	93.4	81.3	101	99.7	74.3	88.6	97.2	102	88.4	93	91	75.3	105	113	116	73.4	119	111	132	122	96.1	97.5	72.7
CNC(=O)c1ccc(N2C(=S)N(c3cnc(C#N)c(C(F)(F)F)c3)C(=O)C23CCC3)cc1F	92.3	88.8	80.1	103	76.8	95.6	105	98	107	101	95.2	83.9	94.1	90.7	93.6	97.1	92.7	94.8	101	98.3	98.6	93.9	82.6	95.3	85.3	91.5	114	100	97.8	98.2	96.8	93.3	108
Cn1cnc2c(F)c(Nc3ccc(Br)cc3F)c(C(=O)NOCCO)cc21	95.3	84.2	93.4	22	105	89.5	80	85.4	87.9	87.7	74.3	85.3	86.1	96.9	16	94.1	108	89.2	85.9	87.1	70.9	61.6	88.1	85.5	107	19.6	87.5	91.5	83.1	70.6	76.2	66	52.8
CC[C@]12CC[C@H]3[C@@H](CCC/4=C/C(=O)CC[C@H]34)[C@@H]1\C=C/[C@@]2(O)C#C	78.9	96.1	106	102	111	108	115	109	127	110	121	110	107	119	123	131	117	106	124	116	125	116	113	110	108	115	116	120	109	118	115	118	118
COc1cc(F)c(F)c(Nc2ccc(I)cc2F)c1N[S+](=O)([O-])C1(C[C@H](O)CO)CC1	102	108	122	106	111	103	105	89.9	117	104	60.2	111	109	121	112	119	126	97.9	120	109	83.6	15.3	110	105	115	115	112	117	104	102	106	103	50.4
O=C(Nc1cccc(C(F)(F)F)c1)Nc1cc([S+](=O)([O-])NC2CC2)ccc1-c1ccsc1	101	108	117	97.1	110	118	109	102	113	106	61.9	–	–	–	–	–	–	–	–	–	–	–	101	107	118	105	107	111	104	83.4	94.9	101	10.3
COCC1(CO)C(=O)C2CCN1CC2 (configuration not stated)	76.2	81.7	112	93.8	96.3	104	4.05	73.6	87.1	71	10.3	102	105	137	134	137	144	3.64	111	99.3	77.2	5.79	70.2	85.2	118	105	124	116	3.95	90.6	103	61.8	16.9
CN(C)[S+](=O)([O-])c1ccc2c(c1)C(=Cc1cc3c([nH]1)CCCC3)C(=O)N2	112	115	112	114	128	129	130	116	114	85.7	111	90.5	98.6	109	103	118	113	118	113	112	78.5	94.7	116	115	127	120	120	108	132	123	113	72.9	116
COc1ccccc1OCC(O)COC(N)=O (configuration not stated)	84	102	104	110	118	114	109	106	119	111	89.1	94.6	110	85.6	110	104	95.8	112	106	120	97.6	99.4	108	109	103	123	106	121	136	93.8	126	118	112
